Assay results from US20150039274A1, “SYSTEM AND METHOD FOR PERSONALIZED METABOLIC MODELING” (Ramot at Tel-Aviv University Ltd., priority 2013, published 2015).

System: RPMI-8226 cells
Assay: Cell proliferation of RPMI-8226 cells with doxycycline-inducible MLYCD shRNA, with or without N-acetyl-cysteine
Assay type: cell-based, human
Conditions: RPMI-8226 shRNA cells; 2 mM N-Acetyl Cysteine
Procedure: HapMap cells (GM06997, CEPH/UTAH pedigree 13291) were obtained from Coriell Institute and RPMI-8226 and K562 cells were obtained from NCI-Frederick Cancer DCTD Tumor/Cell line Repository. Cells were grown in RPMI 1640 plus 10% fetal bovine serum (FBS) in the presence of 5% carbon dioxide. Cell count was determined using a CASY Cell Counter (Roche Applied Science). Where indicated, cells were incubated with 2 mM N-acetyl-cysteine.
The viral supernatant for infection was obtained from the filtered growth media of the packaging cells HEK293T transfected with 3 μg psPAX, 1 μg pVSVG, 4 μg of shRNA contructs and 24 μl Lipofectamine 2000 (Life Technology) and the relevant shRNAs. 5×10^5 cells were then plated on 6-well plates and infected with the viral supernatant in the presence of 4 μg/mL polybrene. After two days, the medium was replaced with selection medium containing 2 μg/mL puromycin.
The expression of the shRNA constructs was induced by incubating cells with 2 μg/mL Doxycyclin.

CC(=O)N[C@@H](CS)C(=O)O [N-Acetyl-cysteine]
cell proliferation of MLYCD-deficient cells in the presence of antioxidant: restored the proliferative defects
